Laboratory results published in patent publication US20230112279A1, “DETERGENT COMPOSITION” (Conopco, Inc., d/b/a UNILEVER, priority 2020, published 2023).

Legend:
Lipex 100 L lipase [1] = target: T1, Lipex 100 L lipase (Thermomyces lanuginosus, UniProt O59952, N255R/T253R); assay: Biochemical determination of lipase activity (4-nitrophenyl ester hydrolysis, 405 nm) with Lipex 100 L; conditions: for Lipex 100L activity in the presence of saponins: 10 ng/mL lipase; for activation of Lipex 100 L: saponin at fixed concentration of 10 μM, FIG. 3; for % increase in Lipase activity in the presence of escin saponin compared to absence of saponin: Lipex 100L
T1 construct: purchased Novozymes
T1 sequence (O59952 23-291 T253R/N255R): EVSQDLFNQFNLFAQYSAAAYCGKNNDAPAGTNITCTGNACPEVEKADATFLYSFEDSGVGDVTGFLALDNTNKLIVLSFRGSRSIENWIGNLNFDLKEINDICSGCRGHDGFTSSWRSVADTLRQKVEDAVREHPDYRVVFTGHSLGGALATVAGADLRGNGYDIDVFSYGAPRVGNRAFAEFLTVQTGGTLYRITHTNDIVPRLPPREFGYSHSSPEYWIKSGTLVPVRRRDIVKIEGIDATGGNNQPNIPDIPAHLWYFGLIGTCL
Experimental: (§1) Lipase activity was determined by a colorimetric method using 4-nitrophenyl-valerate (C5) and 4-nitrophenyl-dodecanoate (C12) as substrates. 4-nitrophenyl-dodecanoate (25 mg) or 4-nitrophenyl-valerate (18 mg) were dissolved in 10 mL solvent (methanol) to prepare 8 mM stock solutions. 1 mL of stock solution was added in 7 mL of acidified water (pH 4.5), to give a final concentration of 1 mM (the substrate). In 96-well microtitre plates the following reagents were added: 60 μL dH2O, 80 μL Tris-HCl buffer (pH 8.5, 50 mM), 20 μL of diluted enzyme solution, 20 μL of saponin 10× concentrated stock solution. 20 μL substrate was then added to start the reaction. For zero enzyme controls, enzyme solution was replaced with H2O. Following the addition of substrate, the release of product (4-nitrophenol) was monitored at 405 nm for 15 min at ambient temperature in a Varioskan plate reader.
(§2) The dose response of various lipases to saponins were tested in a biochemical assay. The concentration of lipase in these experiments was 10 μg/L. This level was chosen to ensure that substrate hydrolysis and resultant increase in absorbance measurements falls within the sensitivity of the spectrophotometer. […] In all cases, the lipase activity increased as the escin concentration reached above a threshold value, which varied according to the enzyme in question, but was in the region 0.01 (Resinase HT) to 0.10 μM (Lipex, 100 L, Lipex Evity and Novozyme 51032).
Activation of a single lipase (Lipex 100 L) by a variety of natural saponins and saponins derived through metabolic engineering were tested using the biochemical assay. The unglycosylated terpenoid, oleanolic acid (OA), was also tested to determine whether lipase activation was a result of the terpenoid moiety or required the terpenoid scaffold to be glycosylated. To compare this directly, the enzymes activation by saponins comprising oleanolic acid glycosylated with 3 or 4 glycoside residues at the C28 position of the triterpenoid (oleanolic acid-28-O-triglycoside (OA-28 x3Gly) and oleanolic acid-28-O-tetraglycoside (OA-28 x4Gly), were compared directly to the activation achieved by oleanolic acid.
Biochemical assays measuring lipase activity were initially used in high-throughput microtitre plate format to enable different saponins at different doses to be screened as potential inhibitors of Lipex 100 L lipase (Novozymes). Effective inhibitors are sought to prevent the lipase hydrolytic activity towards the soil release polymer which is typically observed. […] When using 10 ng/mL lipase ([…]) in this case (this level chosen to ensure that substrate hydrolysis and resultant increase in absorbance measurements falls within the sensitivity of the spectrophotometer) the typical saponin concentration required to inhibit the lipase was around 50-125 μM.

Lipex 100 L lipase [2] = target: T1, Lipex 100 L lipase; assay: Inhibition of Lipex 100 L at fixed dose of 500 μM (Example 7, C12 pNP ester); assay type: biochemical; conditions: fixed dose of 500 μM; for Lipex 100L lipase activity (inhibitory effect of various saponin derivatives): lipase 10 ng/mL final, 50 mM Tris pH 8.5, 25° C., C12 pNP ester 0.1 mM final, lipase-only control 0.0545; for lipase inhibition: Lipex 100 L 10 ng/mL, C12 pNP ester
Experimental: as §1
Various saponins were tested for their ability to inhibit Lipex 100 L lipase (10 ng/mL final). A buffer was used (50 mM Tris pH 8.5) and the experiments were carried out at 25° C. At a fixed dose of 500 μM a number of those tested were effective in lowering the lipase activity. The substrate used for testing as C12 pNP ester (0.1 mM final). These included glycosylated derivatives of oleanolic acid, avenacin, tea tree saponin as well as escin (table 4). Orlistat as a known inhibitor of lipase was also included for comparison (table 4).

Lipex Evity = assay: Biochemical determination of lipase activity with Lipex Evity; conditions: lipase 10 μg/L
Experimental: as §1, §2

Resinase HT = assay: Biochemical determination of lipase activity with Resinase HT; conditions: lipase 10 μg/L
Experimental: as §1, §2

Novozym 51032 = assay: Biochemical determination of lipase activity with Novozym 51032; conditions: lipase 10 μg/L; for % increase in Lipase activity in the presence of escin saponin compared to absence of saponin: Novozym 51032
Experimental: as §1, §2

In the case of CC1(C)[C@@H](O[C@H]2O[C@H](C(=O)O)[C@@H](O)[C@H](O)[C@H]2O[C@@H]2O[C@H](C(=O)O)[C@@H](O)[C@H](O)[C@H]2O)CC[C@]2(C)[C@H]3C(=O)C=C4[C@@H]5C[C@@](C)(C(=O)O)CC[C@]5(C)CC[C@@]4(C)[C@]3(C)CC[C@@H]12 [Glycyrrhizic acid], the “Lipex 100L activity in the presence of saponins” value (from here on “Lipex 100L activity”) (Lipex 100 L lipase [1]; saponin dose 0.01 μM) is reported as 0.244 Δabs/min @405 nm, the “Lipex 100L activity” value (Lipex 100 L lipase [1]; saponin dose 0.1 μM) is reported as 0.252 Δabs/min @405 nm and the “Lipex 100L activity” value (Lipex 100 L lipase [1]; saponin dose 0.5 μM) is reported as 0.238 Δabs/min @405 nm. The “Lipex 100L activity” value (Lipex 100 L lipase [1]; saponin dose 10 μM) was 0.221 Δabs/min @405 nm, the “Lipex 100L activity” value (Lipex 100 L lipase [1]; saponin dose 25 μM) was 0.171 Δabs/min @405 nm and the “Lipex 100L activity” value (Lipex 100 L lipase [1]; saponin dose 50 μM) was 0.135 Δabs/min @405 nm. The “Lipex 100L activity” value (Lipex 100 L lipase [1]; saponin dose 125 μM) was 0.116 Δabs/min @405 nm, the “Lipex 100L activity” value (Lipex 100 L lipase [1]; saponin dose 250 μM) was 0.083 Δabs/min @405 nm and the “Lipex 100L activity” value (Lipex 100 L lipase [1]; saponin dose 500 μM) was 0.068 Δabs/min @405 nm.

In the case of CC1(C)CC[C@]2(C(=O)O)CC[C@]3(C)C(=CC[C@@H]4[C@@]5(C)CC[C@H](O)C(C)(C)[C@@H]5CC[C@]43C)[C@@H]2C1 [Oleanolic acid, reference compound], the “activation of Lipex 100 L” value (Lipex 100 L lipase [1]) is reported as “small activation” and the “Lipex 100L lipase activity (inhibitory effect of various saponin derivatives)” value (Lipex 100 L lipase [2]) is reported as 0.0842 (±0.0084) abs/min @405 nm.

With CCCCCCCCCCC[C@@H](C[C@@H]1OC(=O)[C@H]1CCCCCC)OC(=O)[C@H](CC(C)C)NC=O [Orlistat, reference compound] the “Lipex 100L lipase activity (inhibitory effect of various saponin derivatives)” value (Lipex 100 L lipase [2]) was −0.00032 (±0.0003) abs/min @405 nm.

For Avenacin, the lipase inhibition (Lipex 100 L lipase [2]) was “complete inhibition” and the “Lipex 100L lipase activity (inhibitory effect of various saponin derivatives)” value (Lipex 100 L lipase [2]) was 0.0013 (±0.0006) abs/min @405 nm.

With Escin the “ability to decrease lipase activity (in words)” value (Lipex 100 L lipase [1]; Lipex 100 L, Table 2 screen) was “decrease lipase activity to negligible levels”, the “threshold escin concentration above which lipase activity increased” value (Lipex 100 L lipase [1]; Lipex 100 L, lipase 10 μg/L) was about 0.10 µM and the “% increase in Lipase activity in the presence of escin saponin compared to absence of saponin” value (“% increase in Lipase activity” for short) (Lipex 100 L lipase [1]; saponin dose 0.01 μM, lipase 10 μg/L) was −25%. The “% increase in Lipase activity” value (Lipex 100 L lipase [1]; saponin dose 0.1 μM, lipase 10 μg/L) was 25%, the “% increase in Lipase activity” value (Lipex 100 L lipase [1]; saponin dose 0.5 μM, lipase 10 μg/L) was 100% and the “% increase in Lipase activity” value (Lipex 100 L lipase [1]; saponin dose 1 μM, lipase 10 μg/L) was 450%. For the same compound, the “% increase in Lipase activity” value (Lipex 100 L lipase [1]; saponin dose 2.5 μM, lipase 10 μg/L) was 1650%, the “% increase in Lipase activity” value (Lipex 100 L lipase [1]; saponin dose 5 μM, lipase 10 μg/L) was 1775% and the “Lipex 100L activity” value (Lipex 100 L lipase [1]; saponin dose 0.01 μM) was 0.257 Δabs/min @405 nm. For the same compound, the “Lipex 100L activity” value (Lipex 100 L lipase [1]; saponin dose 0.1 μM) was 0.241 Δabs/min @405 nm, the “Lipex 100L activity” value (Lipex 100 L lipase [1]; saponin dose 0.5 μM) was 0.247 Δabs/min @405 nm and the “Lipex 100L activity” value (Lipex 100 L lipase [1]; saponin dose 10 μM) was 0.200 Δabs/min @405 nm. The “Lipex 100L activity” value (Lipex 100 L lipase [1]; saponin dose 25 μM) was 0.204 Δabs/min @405 nm, the “Lipex 100L activity” value (Lipex 100 L lipase [1]; saponin dose 50 μM) was 0.152 Δabs/min @405 nm and the “Lipex 100L activity” value (Lipex 100 L lipase [1]; saponin dose 125 μM) was 0.006 Δabs/min @405 nm. The “Lipex 100L activity” value (Lipex 100 L lipase [1]; saponin dose 250 μM) was 0.001 Δabs/min @405 nm, the “Lipex 100L activity” value (Lipex 100 L lipase [1]; saponin dose 500 μM) was 0.001 Δabs/min @405 nm and the “threshold escin concentration above which lipase activity increased” value (Lipex Evity) was about 0.10 µM. For the same compound, the “% increase in Lipase activity” value (Lipex Evity; saponin dose 0.01 μM) was 0%, the “% increase in Lipase activity” value (Lipex Evity; saponin dose 0.1 μM) was 20% and the “% increase in Lipase activity” value (Lipex Evity; saponin dose 0.5 μM) was 120%. The “% increase in Lipase activity” value (Lipex Evity; saponin dose 1 μM) was 200%, the “% increase in Lipase activity” value (Lipex Evity; saponin dose 2.5 μM) was 240% and the “% increase in Lipase activity” value (Lipex Evity; saponin dose 5 μM) was 260%. For the same compound, the “threshold escin concentration above which lipase activity increased” value (Resinase HT) was about 0.01 µM, the “% increase in Lipase activity” value (Resinase HT; saponin dose 0.01 μM) was 70% and the “% increase in Lipase activity” value (Resinase HT; saponin dose 0.1 μM) was 60%. For the same compound, the “% increase in Lipase activity” value (Resinase HT; saponin dose 0.5 μM) was 170%, the “% increase in Lipase activity” value (Resinase HT; saponin dose 1 μM) was 210% and the “% increase in Lipase activity” value (Resinase HT; saponin dose 2.5 μM) was 140%. For the same compound, the “% increase in Lipase activity” value (Resinase HT; saponin dose 5 μM) was 200%, the “% increase in Lipase activity” value (Novozym 51032; saponin dose 0.01 μM) was 0% and the “% increase in Lipase activity” value (Novozym 51032; saponin dose 0.1 μM) was 50%. For the same compound, the “% increase in Lipase activity” value (Novozym 51032; saponin dose 0.5 μM) was 50%, the “% increase in Lipase activity” value (Novozym 51032; saponin dose 1 μM) was 50% and the “% increase in Lipase activity” value (Novozym 51032; saponin dose 2.5 μM) was 150%. The “% increase in Lipase activity” value (Novozym 51032; saponin dose 5 μM) was 250%, the “threshold escin concentration above which lipase activity increased” value (Novozym 51032; Novozyme 51032) was about 0.10 µM and the “Lipex 100L lipase activity (inhibitory effect of various saponin derivatives)” value (Lipex 100 L lipase [2]) was 0.0039 (±0.0027) abs/min @405 nm.

In the case of “oleanolic acid-28-O-tetraglycoside [OA-28 x4Gly]”, the lipase inhibition (Lipex 100 L lipase [2]) is reported as 80% and the “Lipex 100L lipase activity (inhibitory effect of various saponin derivatives)” value (Lipex 100 L lipase [2]) is reported as 0.0109 (±0.0006) abs/min @405 nm.

For “oleanolic acid-28-O-triglycoside [OA-28 x3Gly]”, the “activation of Lipex 100 L” value (Lipex 100 L lipase [1]) was “greater than 20 fold”, the lipase inhibition (Lipex 100 L lipase [2]) was “complete inhibition” and the “Lipex 100L lipase activity (inhibitory effect of various saponin derivatives)” value (Lipex 100 L lipase [2]) was −0.0011 (±0.0005) abs/min @405 nm.
